From patent publication US20160271139A1, “METHOD FOR NON-TOXIC TREATMENT FOR DRUG WITHDRAWAL” (DEMERX, INC., priority 2013, published 2016) come the findings set out here.

Bounds are passed on as bounds.

The test system of data set [1] is Sprague-Dawley rat. The data set can be described thus: Single dose toxicity in rats. To be noted: male rats. In kind it is in vivo. How it is done:
The objective of this study was to determine the toxicity and toxicokinetic profile of noribogaine HCl following a single oral (gavage) administration in the Sprague-Dawley rat. A single dose of 100, 300 and 800 mg/kg (achieved with doses of 400 mg/kg 3 h+/−30 min apart because of the limitations of maximum dose formulation concentration). Five male rats/group were used. […] Hypoactivity, vocalization, chewing movements, changes in respiration/posture, salivation, stimuli sensitivity, tremors, twitches and penile erection occurred prior to death. […] The NOAEL was determined to be 100 mg/kg.

Data set [2] has as its system dogs. As to the kind of experiment: Fourteen day repeat dose toxicity in dogs. Type of data set: in vivo, dog. How it is done:
The objective of this study was to determine the toxicity profile of noribogaine HCl given following oral (gavage) administration to dogs for 14 days according to the following Table 3 below:
Noribogaine HCl was administered to groups of 4 male and 4 female dogs by single oral gavage daily for 14 days at doses of 0, 0.5, 1.0 and 5.0 mg/kg/day. An additional group of 4 male and 4 female dogs received either the vehicle control or 5.0 mg/kg/day for 14 days and were held for an additional 28 days after cessation of dosing to assess recovery from any potential drug-induced changes. The study was conducted under GLP guidelines and included comprehensive examinations of clinical signs, body weight, clinical pathology parameters, ophthalmologic examinations. ECG recordings and analyses of plasma for bioanalytical measurement of drug levels at appropriate intervals during the study. At the termination of the dosing phase and at the termination of the recovery phase, all dogs were subjected to a complete post-mortem examination including gross examination of major organs and histologic examination of an extensive list of tissues. Additional sections of brain were obtained from cerebrum, cerebellus, brain stem and spinal cord and examined histologically to evaluate potential effects on brain histopathology. In addition, these sections were examined with immunohistochemical stains for GFAP for evidence of gliosis and Calbindin for a more comprehensive examination of cerebellar Purkinje cells.

In data set [3] the test system is Sprague-Dawley rats. As to the kind of experiment: Fourteen day repeat dose toxicity in rats. Type of data set: in vivo, rat. How it is done: This study was conducted to evaluate the toxicity profile of noribogaine-HCl following oral (gavage) administration to the rat for 14 days following Table 2 below:
Male and female Sprague-Dawley rats, 10/sex/group, were administered 0, 25, 50 or 100 mg/kg noribogaine HCl daily by single oral gavage for 14 days. An additional 5 rats/sex/group in the 0 (control) and 100 mg/kg groups were retained for a 28 day recovery period during which no drug was administered. Six rats/sex/group (3 rats/sex controls) were similarly dosed and sampled on study days 1 and 14 for analysis of noribogaine-HCl concentrations in the blood.

Data set [4] in a line: Human pharmacokinetic study, single oral dose, serum levels (Example 6). Type of data set: in vivo. To be noted: fasting healthy volunteers, single oral tablet 3, 10, 30 or 60 mg. How it is done: In double blind studies, fasting healthy volunteers (6 per cohort) were treated once orally with a tablet of noribogaine HCl. In escalating cohorts, the volunteers received 3 mg, 10 mg, 30 mg or 60 mg noribogaine.

Data set [5] can be described thus: Plasma noribogaine glucuronide pharmacokinetics in healthy volunteers (Example 7). To be noted: human plasma; for AUC0-216 / AUC0-∞ / Cmax / Tmax / t1/2: mean. In kind it is in vivo.
Setting [6] is: after single oral 30 mg noribogaine (n = 6).
[7] abbreviates: after single oral 60 mg noribogaine (n = 6).

On to `CC[C@@H]1C[C@H]2CC3c4[nH]c5ccc(O)cc5c4CCN(C2)C31.Cl` [noribogaine HCl], for which the NOAEL in data set [1] (single oral gavage) was 100 mg/kg; in data set [2] (dogs, 14 days oral gavage, based on lacrimal gland changes at 5 mg/kg/day) it was 1 mg/kg/day; in data set [3] (rats, 14 days oral gavage, highest dose tested), 100 mg/kg. Besides, the Treatment related signs result in data set [1] (single oral gavage 100 mg/kg) is reported as “did not show any treatment related signs”. In addition, the “Rats with hypoactivity, vocalization, salivation, stimuli sensitivity, loss of limb function and lying on the cage floor persisting until Day 2” value in data set [1] (single oral gavage 300 mg/kg) is reported as 3/5. Also, the Mortality entry in data set [1] (single oral gavage 800 mg/kg (2 x 400 mg/kg 3 h apart), approximately 2-3 h after second dose) is reported as “Mortality occurred in all male rats”. Also, the “Lacrimal gland change in recovery group” value in data set [2] (dogs, 5 mg/kg/day 14 days, then 28 days off drug) is listed as “clear evidence of regeneration”. Further, the “Lacrimal gland changes (only target tissue)” value in data set [2] (dogs, 5 mg/kg/day, 14 days) is “slight to moderate atrophy and degeneration of the acinar cells”. For the same molecule, in data set [2] (dogs, 0.5, 1.0 and 5.0 mg/kg/day oral gavage 14 days, dosing or recovery phase), the “Adverse effect in clinical observations, body weights, clinical pathological parameters, ophthalmologic examinations, ECG recordings, or gross lesions at necropsy” value is reported as “No evidence of adverse effect”. Further, the “Drug-induced effect in any other tissue including brain (histopathology, immunohistochemistry)” value in data set [2] (dogs, 14 days oral gavage) was “No evidence of drug-induced effect”. Besides, the “Effects on mortality, clinical signs, ophthalmoscopy, hematology, coagulation parameters, clinical chemistry, urinalysis, gross necropsy or histopathology” value in data set [3] (rats, 25, 50 or 100 mg/kg daily oral gavage for 14 days) was “no test article-related effects”. Further, the “Brain sections stained for GFAP or Calbindin” value in data set [3] (rats, 14 days oral gavage) is reported as “No treatment-related differences in the brain”. In addition, the Body weight change in data set [3] (rats, females, high dose 100 mg/kg, 14 days) is given as −2.6%; in data set [3] (rats, males, high dose 100 mg/kg, 14 days), −5.5%. For the same molecule, the Food consumption change in data set [3] (rats, males and females, high dose 100 mg/kg, 14 days) is −4.7%. The Liver weight entry in data set [3] (rats, mid- and high dose groups (50, 100 mg/kg), 14 days, not correlated with histopathologic changes, considered incidental) is on record as “Minor increases in liver weight”. Further, the Adverse effects result in data set [4] was “no clinically relevant adverse effects were observed”. The “Linearity of pharmacokinetic parameters” value in data set [4] is “All parameters were linear”.
On to `CC[C@H]1C[C@@H]2C[C@H]3c4[nH]c5ccc(OC6OC(C(=O)O)C(O)C(O)C6O)cc5c4CCN(C2)[C@@H]13` (some centres unmarked) [Noribogaine glucuronide, noribogaine glucuronide], for which, in data set [5] (30 mg and 60 mg dose groups), the Mean half-life was in the range of 21 to 23 h and the “Time of peak concentrations after noribogaine dosing” value was in the range of 3 to 4 h. Moreover, the “Time by which detected in all subjects” value in data set [5] (30 mg and 60 mg noribogaine dose groups) was at most 0.75 h. Also, in data set [5] (setting [6]), the AUC0-216 was determined as 25.7 ng·h/mL, the “AUC0-∞” value was determined as 25.8 ng·h/mL, the Cmax was 1.8 ng/mL and the Tmax stood at 3.0 h. Further, the t1/2 in data set [5] (setting [6]) stood at 20.6 h. In data set [5] (setting [7]), the AUC0-216 stood at 65.0 ng·h/mL, the “AUC0-∞” value turned out to be 67.1 ng·h/mL, the Cmax came to 4.1 ng/mL and the Tmax was 3.8 h. This molecule also had a t1/2 in data set [5] (setting [7]) of 23.1 h. Also, the “Proportion of noribogaine glucuronide Cmax and AUC relative to noribogaine” value in data set [5] (both dose groups (30 mg, 60 mg)) is given as 3-4%.
